Columns and labels:
Set-up in all cases: scale not given: the % may be the effect or the level left
[1] = molecular target: T1, Mitogen-activated protein kinase kinase kinase 5 (Homo sapiens) (UniProt Q99683); experiment: Inhibition of human ASK1 assessed as enzyme activity at 1 uM using myelin basic protein as substrate preincubated for 20 mins followed by [gamma-33P]-ATP addition and measured after 120 mins by radiometric Hot-SpotSM Kinase assay relative to control
T1 sequence (whole entry): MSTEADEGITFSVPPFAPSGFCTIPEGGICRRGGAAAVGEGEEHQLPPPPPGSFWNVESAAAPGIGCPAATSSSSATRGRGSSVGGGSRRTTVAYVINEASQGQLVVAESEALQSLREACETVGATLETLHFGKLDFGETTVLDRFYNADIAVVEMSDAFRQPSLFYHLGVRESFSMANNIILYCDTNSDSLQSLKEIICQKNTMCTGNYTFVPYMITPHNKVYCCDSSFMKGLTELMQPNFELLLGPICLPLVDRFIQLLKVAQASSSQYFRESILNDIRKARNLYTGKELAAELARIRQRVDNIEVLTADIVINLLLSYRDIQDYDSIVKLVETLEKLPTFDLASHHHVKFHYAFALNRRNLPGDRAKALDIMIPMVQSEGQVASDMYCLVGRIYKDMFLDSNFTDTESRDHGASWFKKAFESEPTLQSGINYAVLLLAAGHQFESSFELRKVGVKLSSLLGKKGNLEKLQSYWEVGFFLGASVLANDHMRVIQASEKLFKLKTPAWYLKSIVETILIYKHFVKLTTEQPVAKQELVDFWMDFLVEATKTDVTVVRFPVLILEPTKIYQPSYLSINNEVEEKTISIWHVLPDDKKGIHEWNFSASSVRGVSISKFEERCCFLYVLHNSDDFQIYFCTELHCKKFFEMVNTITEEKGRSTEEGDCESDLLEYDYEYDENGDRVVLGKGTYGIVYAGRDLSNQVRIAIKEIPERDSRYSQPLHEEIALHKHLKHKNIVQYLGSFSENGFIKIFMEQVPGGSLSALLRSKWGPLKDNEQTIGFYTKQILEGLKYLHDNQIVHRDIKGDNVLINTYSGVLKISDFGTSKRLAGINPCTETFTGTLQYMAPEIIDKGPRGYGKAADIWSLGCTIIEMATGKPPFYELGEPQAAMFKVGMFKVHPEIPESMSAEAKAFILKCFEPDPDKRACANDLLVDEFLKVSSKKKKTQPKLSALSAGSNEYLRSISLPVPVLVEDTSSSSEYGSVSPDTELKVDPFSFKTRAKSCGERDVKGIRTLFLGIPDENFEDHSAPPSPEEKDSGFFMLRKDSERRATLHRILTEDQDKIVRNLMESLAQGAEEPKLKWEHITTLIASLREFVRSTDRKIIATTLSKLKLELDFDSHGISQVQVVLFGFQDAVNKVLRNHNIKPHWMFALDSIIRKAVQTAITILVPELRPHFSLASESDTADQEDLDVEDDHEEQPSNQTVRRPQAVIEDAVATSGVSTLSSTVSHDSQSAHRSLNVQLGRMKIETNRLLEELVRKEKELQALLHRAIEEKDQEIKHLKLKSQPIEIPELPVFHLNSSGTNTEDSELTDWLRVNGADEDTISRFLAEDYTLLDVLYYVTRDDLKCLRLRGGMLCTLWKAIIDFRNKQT

[2] = molecular target: T2, Serine/threonine-protein kinase BRSK1 (Homo sapiens) (UniProt Q8TDC3); experiment: Inhibition of human BRSK1 assessed as enzyme activity at 1 uM using KKKVSRSGLYRSPSMPENLNRPR as substrate preincubated for 20 mins followed by [gamma-33P]-ATP addition and measured after 120 mins by radiometric Hot-SpotSM Kinase assay relative to control
T2 sequence (whole entry): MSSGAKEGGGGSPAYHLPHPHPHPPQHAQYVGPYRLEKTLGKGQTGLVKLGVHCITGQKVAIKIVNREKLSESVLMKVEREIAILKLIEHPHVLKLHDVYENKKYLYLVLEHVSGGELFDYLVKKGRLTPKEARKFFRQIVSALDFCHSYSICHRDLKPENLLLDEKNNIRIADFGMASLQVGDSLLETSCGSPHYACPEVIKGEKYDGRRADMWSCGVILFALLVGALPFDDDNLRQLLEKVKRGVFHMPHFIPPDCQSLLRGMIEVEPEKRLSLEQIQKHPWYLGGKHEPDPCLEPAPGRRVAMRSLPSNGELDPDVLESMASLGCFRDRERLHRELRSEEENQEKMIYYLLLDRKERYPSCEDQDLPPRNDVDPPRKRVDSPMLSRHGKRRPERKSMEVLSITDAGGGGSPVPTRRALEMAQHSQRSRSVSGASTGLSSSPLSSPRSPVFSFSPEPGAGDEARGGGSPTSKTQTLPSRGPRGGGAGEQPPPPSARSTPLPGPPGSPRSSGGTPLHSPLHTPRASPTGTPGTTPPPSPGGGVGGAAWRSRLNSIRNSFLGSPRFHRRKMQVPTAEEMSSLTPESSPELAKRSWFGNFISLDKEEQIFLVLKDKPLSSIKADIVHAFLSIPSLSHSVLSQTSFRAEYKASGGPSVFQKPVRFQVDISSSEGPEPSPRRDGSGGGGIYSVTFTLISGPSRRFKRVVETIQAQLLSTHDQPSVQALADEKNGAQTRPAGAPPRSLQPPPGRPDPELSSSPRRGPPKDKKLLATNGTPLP

[3] = molecular target: CDK1/Cyclin A (Homo sapiens) (UniProt P06493+P20248); experiment: Inhibition of human CDK1/cyclin A assessed as enzyme activity at 1 uM using RB Protein as substrate preincubated for 20 mins followed by [gamma-33P]-ATP addition and measured after 120 mins by radiometric Hot-SpotSM Kinase assay relative to control; format: protein-complex assay
[4] = molecular target: MAP kinase-interacting serine/threonine-protein kinase 1 (Homo sapiens) (UniProt Q9BUB5); experiment: Inhibition of human MNK1 assessed as enzyme activity at 1 uM using myelin basic protein as substrate preincubated for 20 mins followed by [gamma-33P]-ATP addition and measured after 120 mins by radiometric Hot-SpotSM Kinase assay relative to control
[5] = molecular target: Serine/threonine-protein kinase PLK2 (Homo sapiens) (UniProt Q9NYY3); experiment: Inhibition of human PLK2 assessed as enzyme activity at 1 uM using casein as substrate preincubated for 20 mins followed by [gamma-33P]-ATP addition and measured after 120 mins by radiometric Hot-SpotSM Kinase assay relative to control
[6] = molecular target: Tyrosine-protein kinase Srms (Homo sapiens) (UniProt Q9H3Y6); experiment: Inhibition of human SRMS assessed as enzyme activity at 1 uM using poly[Glu:Tyr] (4:1) as substrate preincubated for 20 mins followed by [gamma-33P]-ATP addition and measured after 120 mins by radiometric Hot-SpotSM Kinase assay relative to control
Sequence of Tyrosine-protein kinase Srms (Homo sapiens) (Q9H3Y6 whole entry): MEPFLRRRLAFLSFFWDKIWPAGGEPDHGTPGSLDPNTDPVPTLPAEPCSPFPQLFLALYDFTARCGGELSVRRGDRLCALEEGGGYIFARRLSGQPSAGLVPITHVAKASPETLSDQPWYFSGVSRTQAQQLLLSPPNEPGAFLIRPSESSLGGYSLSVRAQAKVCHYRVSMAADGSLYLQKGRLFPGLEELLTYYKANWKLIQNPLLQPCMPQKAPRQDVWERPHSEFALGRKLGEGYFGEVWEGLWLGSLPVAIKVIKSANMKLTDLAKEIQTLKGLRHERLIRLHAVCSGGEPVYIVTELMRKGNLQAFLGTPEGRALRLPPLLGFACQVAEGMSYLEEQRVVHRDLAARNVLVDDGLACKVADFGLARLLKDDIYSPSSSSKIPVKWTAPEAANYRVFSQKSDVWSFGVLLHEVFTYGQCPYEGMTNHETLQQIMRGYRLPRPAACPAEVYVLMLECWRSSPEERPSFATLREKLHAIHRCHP

Sequence of Serine/threonine-protein kinase PLK2 (Homo sapiens) (Q9NYY3 whole entry, looked up): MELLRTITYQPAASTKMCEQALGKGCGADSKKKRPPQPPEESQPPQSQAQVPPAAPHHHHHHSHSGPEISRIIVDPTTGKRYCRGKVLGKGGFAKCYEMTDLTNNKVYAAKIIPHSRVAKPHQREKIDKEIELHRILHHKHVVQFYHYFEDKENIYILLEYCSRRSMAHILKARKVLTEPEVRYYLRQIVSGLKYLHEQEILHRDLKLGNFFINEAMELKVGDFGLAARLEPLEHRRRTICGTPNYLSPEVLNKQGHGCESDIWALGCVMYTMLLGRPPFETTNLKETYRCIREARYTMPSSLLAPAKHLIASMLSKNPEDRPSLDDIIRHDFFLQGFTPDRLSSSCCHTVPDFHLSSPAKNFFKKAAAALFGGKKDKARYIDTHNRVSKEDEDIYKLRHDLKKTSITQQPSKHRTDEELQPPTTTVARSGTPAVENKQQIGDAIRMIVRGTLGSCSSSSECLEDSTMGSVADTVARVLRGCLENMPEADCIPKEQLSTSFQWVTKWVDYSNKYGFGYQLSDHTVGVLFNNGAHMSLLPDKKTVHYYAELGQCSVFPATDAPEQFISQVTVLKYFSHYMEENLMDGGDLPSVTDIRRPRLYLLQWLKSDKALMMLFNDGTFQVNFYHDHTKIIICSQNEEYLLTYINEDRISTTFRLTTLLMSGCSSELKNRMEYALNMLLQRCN
Sequence of CDK1/Cyclin A (Homo sapiens) (P06493 whole entry, looked up): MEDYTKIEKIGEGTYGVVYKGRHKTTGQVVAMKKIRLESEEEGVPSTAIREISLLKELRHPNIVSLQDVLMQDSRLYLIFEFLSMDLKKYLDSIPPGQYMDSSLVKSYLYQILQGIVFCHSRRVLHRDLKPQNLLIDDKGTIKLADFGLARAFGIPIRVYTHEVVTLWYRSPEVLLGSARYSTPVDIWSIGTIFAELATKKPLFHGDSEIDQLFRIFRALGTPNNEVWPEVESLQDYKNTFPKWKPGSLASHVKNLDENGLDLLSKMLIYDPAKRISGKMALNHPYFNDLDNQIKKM
Sequence of CDK1/Cyclin A (Homo sapiens) (P20248 whole entry, looked up): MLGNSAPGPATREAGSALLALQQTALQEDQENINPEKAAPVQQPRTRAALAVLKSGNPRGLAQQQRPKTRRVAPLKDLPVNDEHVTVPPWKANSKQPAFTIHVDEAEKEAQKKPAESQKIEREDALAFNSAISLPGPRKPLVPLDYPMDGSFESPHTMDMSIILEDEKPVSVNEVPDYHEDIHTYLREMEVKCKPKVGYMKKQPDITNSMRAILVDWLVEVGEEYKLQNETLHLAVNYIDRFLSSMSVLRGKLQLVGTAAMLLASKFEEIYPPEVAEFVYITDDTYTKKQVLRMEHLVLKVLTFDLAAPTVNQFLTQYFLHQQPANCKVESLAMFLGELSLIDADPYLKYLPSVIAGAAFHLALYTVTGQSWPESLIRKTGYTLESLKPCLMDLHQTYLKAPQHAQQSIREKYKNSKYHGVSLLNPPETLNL
Sequence of MAP kinase-interacting serine/threonine-protein kinase 1 (Homo sapiens) (Q9BUB5 whole entry, looked up): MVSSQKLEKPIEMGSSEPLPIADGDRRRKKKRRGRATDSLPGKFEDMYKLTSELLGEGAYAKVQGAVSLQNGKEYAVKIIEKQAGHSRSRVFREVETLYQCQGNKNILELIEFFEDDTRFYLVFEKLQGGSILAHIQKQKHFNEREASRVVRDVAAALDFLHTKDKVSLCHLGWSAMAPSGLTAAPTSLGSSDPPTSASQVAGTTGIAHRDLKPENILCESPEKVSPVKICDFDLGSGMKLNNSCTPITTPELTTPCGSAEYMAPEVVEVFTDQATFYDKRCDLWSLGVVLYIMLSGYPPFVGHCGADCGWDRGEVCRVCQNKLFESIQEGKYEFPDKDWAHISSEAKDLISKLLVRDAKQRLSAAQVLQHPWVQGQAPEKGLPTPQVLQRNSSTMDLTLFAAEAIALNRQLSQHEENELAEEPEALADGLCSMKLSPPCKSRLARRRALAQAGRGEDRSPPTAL

SMILES | Activity [1] [%] | Activity [2] [%] | Activity [3] [%] | Activity [4] [%] | Activity [5] [%] | Activity [6] [%]
CC[C@H](Nc1ncnc2[nH]cnc12)c1nc2cccc(F)c2c(=O)n1-c1ccccc1 | 102 | 89.1 | 95.5 | 96.3 | 102 | 102
C[C@H](Nc1ncnc2nc[nH]c12)c1cc2cccc(Cl)c2c(=O)n1-c1ccccc1 | 97.7 | 92.5 | 95.7 | 93.5 | 98.6 | 100
CC(C)Oc1ccc(-c2nn([C@@H](C)c3oc4ccc(F)cc4c(=O)c3-c3cccc(F)c3)c3ncnc(N)c23)cc1F [UMBRALISIB] | 98.4 | 87.9 | 96.9 | 92 | 99.8 | 105
